The record followed here is PubChem BioAssay (NCI).

Holding throughout (assay): inhibition of tumour cell growth, NCI panel, 48 h
In experiment [1] the test system is ACHN renal.
Experiment [2] deals with COLO 205 colon.
The test system of experiment [3] is EKVX NSCLC.
Experiment [4] has as its system HOP-92 NSCLC.
Experiment [5] concerns MALME-3M melanoma.
The test system of experiment [6] is MCF7 breast.
Experiment [7] deals with NCI-H226 lung.
For experiment [8], the system named is OVCAR-4 ovarian.
Experiment [9] relates to PC-3 prostate.
Experiment [10] has as its system T-47D breast.
Experiment [11] relates to UACC-257 melanoma.
Experiment [12] deals with UO-31 renal.
For experiment [13], the system named is SF-268 CNS.
In experiment [14] the test system is SNB-19 CNS.
Experiment [15] deals with SW-620 colon.
Experiment [16] relates to MDA-N.

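Test compounds were applied to cells in 96-well plates for 48 hours at 5 doses. GI50 = concentration required for 50% inhibition of growth. TGI: total growth inhibition.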

As to `CC(O)c1c2c(cc3c1CC1(C3)Cc3cc4c(c(C(C)O)c3C1)CCC4)CCC2` (centres undefined), the TGI in [1] is 31.4 µM; in experiment [2] it was 28.6 µM; in experiment [3] it was 96.2 µM; in [4], 31.6 µM; in experiment [5], 34.5 µM; in experiment [6] it was 59.5 µM. Besides, the TGI was 34 µM in experiment [7]; 17.5 µM in [8]; 34.9 µM in experiment [9]; 53.7 µM in experiment [10]; 31.7 µM in experiment [11]; 3.26 µM in [12].
For `O=C1CC2CC=C[C@H]3c4cc5c(cc4C(=O)N1C23)OCO5` (some centres undefined), the TGI in experiment [1], in experiment [2], in experiment [3], in [5], in experiment [7] and in [13] was above 50 µM throughout. Moreover, the TGI in experiment [14], in experiment [15], in [11] and in [12] was above 50 µM each time.
For `O=C(O)C(CS)NCc1c2ccccc2[n+]([O-])c2ccccc12` (centres undefined), the TGI in experiment [1] was above 100 µM; in experiment [2], above 100 µM; in experiment [3], above 100 µM; in experiment [4], 46.5 µM; in experiment [5] it was above 100 µM; in experiment [7], above 100 µM. The TGI in experiment [8] was 86.6 µM; in experiment [13], 91.3 µM; in [14] it was above 100 µM; in experiment [15], above 100 µM; in experiment [11], above 100 µM; in [12] it was 66.3 µM.
As for `O=C(Cc1ccccc1)NN1C(=O)C(Cl)C1c1cccc(O)c1` (centres undefined), the TGI in experiment [1] turned out to be 31 µM; in [2] it was 32.9 µM; in experiment [3], 45.7 µM; in experiment [5], 76.3 µM; in experiment [7], 43.4 µM; in experiment [8], 40 µM. In addition, the TGI in [13] is 53.7 µM; in [14], above 100 µM; in experiment [15], 16.7 µM; in experiment [11] it was 35 µM; in [12], 29.4 µM.
Regarding `COc1cc(C2C(Cl)C(=O)N2n2cnc3ccccc3c2=O)cc(OC)c1OC` (centres undefined), the TGI in experiment [1], in experiment [2], in experiment [3], in experiment [5], in experiment [7] and in experiment [8] was above 100 µM in each case. Further, the TGI in [13], in experiment [14], in experiment [15], in [11] and in experiment [12] was above 100 µM in each case.
As to `O=C(NCCN1C(=O)CN=C(c2ccc(Cl)cc2)c2cc(Cl)ccc21)OCc1ccccc1`, the TGI came out at 32.1 µM in experiment [1]; 50.4 µM in experiment [2]; 66.6 µM in experiment [3]; 31.2 µM in experiment [4]; 31.6 µM in [5]; 31.9 µM in experiment [16]. For the same compound, the TGI in experiment [7] was 35.5 µM; in [8] it was 22.6 µM; in experiment [9], 28.3 µM; in [13], 29.9 µM; in experiment [14], 50.8 µM; in experiment [15] it was above 100 µM. Moreover, the TGI in [10] was above 100 µM; in experiment [11] it was 34.1 µM; in experiment [12], 24.7 µM.
For the compound `O=C1C=C(N2CCCC2)C=C(N2CCCC2)C1`, the TGI in experiment [1], in experiment [2], in experiment [3], in experiment [4], in [5] and in experiment [7] was above 100 µM throughout. Moreover, the TGI in experiment [13], in experiment [14], in experiment [15], in experiment [11] and in [12] was above 100 µM each time.
For the compound `CCCCOC(=O)C(=O)C(CC(C(=O)Cc1ccccc1)c1ccccc1)C(=O)C=C(C)C` (centres undefined), the TGI in experiment [1], in experiment [2], in [3], in experiment [4], in experiment [6] and in experiment [16] was above 100 µM in each case. The TGI in experiment [7], in experiment [8], in experiment [9], in experiment [13], in experiment [14] and in experiment [15] was above 100 µM each time. In addition, the TGI in experiment [11] and in [12] was above 100 µM throughout.
Turning to `COC(=O)[C@@H]1C=C[C@@H](C#N)n2c(=O)n(-c3ccccc3)c(=O)n21`, the TGI in experiment [1] was above 100 µM; in experiment [2] it was above 100 µM; in experiment [3], above 100 µM; in experiment [4], above 100 µM; in experiment [6], above 100 µM; in [7] it was 40.4 µM. The TGI in experiment [8] is above 100 µM; in experiment [13] it was above 100 µM; in [14], above 100 µM; in experiment [15], above 100 µM; in experiment [10], 94.1 µM; in [11] it was above 100 µM. The same compound came in with a TGI in [12] above 100 µM.
For `CC(=O)Oc1c(C)cc(-c2cc(C)c(OC(C)=O)c(C)c2)cc1C`, the TGI in [1], in experiment [2], in experiment [3], in experiment [4], in [5] and in experiment [6] was above 100 µM in each case. Further, the TGI in [16] is 25.6 µM; in [7], 94.4 µM; in experiment [8], above 100 µM; in experiment [9], above 100 µM; in [13] it was above 100 µM; in [14], above 100 µM. The TGI was above 100 µM in experiment [15], above 100 µM in experiment [11] and 84.6 µM in [12].
Consider `Cc1ccc(S(=O)(=O)N2CCCSCCSCCCSCC2)cc1`, for which the TGI in experiment [2], in experiment [3], in experiment [4], in experiment [6], in experiment [8] and in experiment [9] was above 100 µM each time. The TGI in [13], in [14], in experiment [15], in experiment [10], in experiment [11] and in experiment [12] was above 100 µM throughout.
In the case of `CCOC(=O)c1cccc(NC(=O)CBr)c1`, the TGI in experiment [1] worked out at 3.09 µM; in experiment [2], 3.29 µM; in experiment [3] it was 3.47 µM; in [4], 4.14 µM; in [5] it was 4.22 µM; in experiment [6] it was 3.3 µM. Besides, the TGI turned out to be 2.82 µM in [16]; 2.8 µM in experiment [7]; 3.73 µM in experiment [8]; 2.94 µM in experiment [9]; 16.6 µM in experiment [14]; 1.66 µM in [15]. In addition, the figures for the TGI in [11] and in [12] were 3.86 µM and 1.96 µM, respectively.
For `FC(F)(F)P1C2C=CC(CC2)C1(F)F` (centres undefined), the TGI in [1], in experiment [2], in experiment [3], in experiment [5], in experiment [7] and in [8] was above 100 µM each time. Also, the TGI in [13], in experiment [14], in experiment [15], in [11] and in experiment [12] was above 100 µM each time.
With `Cc1c(C(=O)CSc2nc3ccc([N+](=O)[O-])cc3[nH]2)c(=O)n(-c2ccccc2)n1C`, the TGI in experiment [1], in experiment [2], in [4], in [5], in experiment [7] and in [8] was above 100 µM each time. The TGI in experiment [13], in experiment [14], in experiment [15], in experiment [11] and in experiment [12] was above 100 µM throughout.
Take `CC(=O)Oc1ccc(N2C(=O)C3c4[nH]c5ccccc5c4C4CCC(C(C)(C)C)CC4C3C2=O)cc1` (centres undefined): the TGI is 12.2 µM in [1]; 17.5 µM in experiment [2]; 9.41 µM in experiment [3]; 7.84 µM in experiment [4]; 19.4 µM in experiment [5]; 13.7 µM in [6]. The TGI in experiment [16] is 14.1 µM; in [7], 26.1 µM; in experiment [9], 10.4 µM; in [13] it was 11 µM; in experiment [14], 9.84 µM; in [15], 5.16 µM. In addition, the values for the TGI in experiment [11] and in [12] were 24 µM and 17.7 µM, respectively.
For `CNNC1=NS(=O)(=O)c2cc(C)c(Cl)cc2S1`, the TGI in [1], in [2], in experiment [3], in [5], in [16] and in [7] was above 10 µM in each case. Also, the TGI in experiment [8], in experiment [9], in [13], in experiment [14], in experiment [15] and in experiment [10] was above 10 µM in each case. The values for the TGI in experiment [11] and in [12] were above 10 µM and 0.0901 µM, respectively.
On to `CC(=O)OCCC1c2ccccc2-n2nc(-c3ccccc3)c(O)c21` (centres undefined), for which the TGI stood at 45.1 µM in experiment [1]; 40.1 µM in experiment [2]; 36 µM in experiment [3]; 27.4 µM in experiment [4]; 22.9 µM in experiment [6]; 33.2 µM in experiment [16]. The TGI was 64.4 µM in experiment [7]; 40.5 µM in experiment [8]; 34.3 µM in [9]; 90.6 µM in [13]; 32.2 µM in [14]; 31.6 µM in experiment [15]. In addition, the TGI worked out at 32.5 µM in experiment [11] and 30.8 µM in experiment [12].
`O=C1Nc2cccc3ncn(c23)C2=C1CCCC2`: the TGI in experiment [1], in experiment [2], in [3], in experiment [5], in [13] and in experiment [14] was above 100 µM throughout. The TGI in experiment [15], in experiment [11] and in experiment [12] was above 100 µM throughout.
As to `O=c1[nH]c2cc(C(F)(F)F)ccc2nc1Cc1ccccc1`, the TGI in experiment [1], in [2], in experiment [3], in experiment [4], in experiment [6] and in experiment [7] was above 100 µM in each case. Further, the TGI in experiment [8], in experiment [9], in experiment [13], in [14], in [15] and in experiment [10] was above 100 µM throughout. Moreover, the TGI in experiment [11] and in [12] was above 100 µM each time.
As to `CC(=O)O[C@H]1C(=O)[C@@]2(C)C([C@H](OC(=O)c3ccccc3)[C@]3(O)C[C@H](OC(=O)[C@H](O)[C@H](NC(=O)c4ccccc4)c4ccc(Cl)cc4)C(C)=C1C3(C)C)C1(OC(C)=O)CO[C@@H]1C[C@@H]2O` (some centres undefined), the GI50 was 1660 nM in experiment [1], 204 nM in experiment [3] and 1970 nM in experiment [12]. Besides, the TGI is above 100 µM in experiment [1]; 0.00842 µM in [2]; 40.6 µM in experiment [3]; 26.3 µM in experiment [5]; 0.0497 µM in [7]; 22.1 µM in experiment [8]. Moreover, the TGI in experiment [14] turned out to be 45.3 µM; in experiment [15], 18.3 µM; in experiment [12] it was 11 µM.
With `CCOC(=O)N1CCN(Cc2cc(=O)n3cc(C)ccc3n2)CC1`, the TGI in [1], in [2], in experiment [3], in experiment [4], in [5] and in experiment [6] was above 100 µM in each case. The TGI in experiment [16], in [7], in [8], in experiment [9], in experiment [13] and in experiment [14] was above 100 µM each time. The TGI in experiment [15], in experiment [11] and in experiment [12] was above 100 µM each time.
